Source: ChEMBL document CHEMBL2375211, “2-methoxyjuglone induces apoptosis in HepG2 human hepatocellular carcinoma cells and exhibits in vivo antitumor activity in a H22 mouse hepatocellular carcinoma model” (J Nat Prod, 2013)

Assays:
[1] = test system: Mus musculus; test: Toxicity in Kunming mouse allografted with mouse H22 cells assessed as decrease in body weight at 20 mg/kg/day, ip measured every day for 8 days; format: organism-based; design: route intraperitoneal; conditions: in vivo, 192 h
[2] = test system: H22; test: Antitumor activity against mouse H22 cells allografted in Kunming mouse assessed as decrease in weight of tumor mass at 20 mg/kg/day, ip administered 8 days measured after 10 days relative to control; format: functional; design: scale not given: the % may be the effect or the level left; conditions: route intraperitoneal

Q: Which results are given for `O=c1[nH]cc(F)c(=O)[nH]1` [FLUOROURACIL]?
A: Activity [1]: Toxic; Activity [2]: 81%
